Active and inactive are the calls of the source.
Legend:
[1] = target: T1, Calpain-2 catalytic subunit (Sus scrofa, UniProt P43367); experiment: m-calpain protease blockers, concentration series – biochemical, fluorogenic peptide substrate, dose response (AID 1420); format: functional
T1 sequence (P43367 whole entry): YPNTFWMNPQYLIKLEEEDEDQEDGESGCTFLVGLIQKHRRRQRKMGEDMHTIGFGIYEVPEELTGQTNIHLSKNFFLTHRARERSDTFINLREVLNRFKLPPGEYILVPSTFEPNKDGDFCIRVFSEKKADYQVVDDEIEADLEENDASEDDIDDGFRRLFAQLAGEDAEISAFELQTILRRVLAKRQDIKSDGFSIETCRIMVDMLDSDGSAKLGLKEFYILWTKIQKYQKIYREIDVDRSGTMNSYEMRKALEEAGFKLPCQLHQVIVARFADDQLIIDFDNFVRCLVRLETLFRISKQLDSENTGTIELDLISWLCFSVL

[2] = A cytotoxicity screen of small molecule inhibitors of the PhoP region in Salmonella typhi identified in the primary screen. [Related pubchem assays: 1850, 1864, 1985 ]; format: functional
[3] = target: Voltage-dependent T-type calcium channel subunit alpha-1H (Homo sapiens, UniProt O95180); format: functional;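 further: channel activity triggered by adding a high calcium stimulation buffer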
Voltage-dependent T-type calcium channel subunit alpha-1H, sequence (O95180 whole entry): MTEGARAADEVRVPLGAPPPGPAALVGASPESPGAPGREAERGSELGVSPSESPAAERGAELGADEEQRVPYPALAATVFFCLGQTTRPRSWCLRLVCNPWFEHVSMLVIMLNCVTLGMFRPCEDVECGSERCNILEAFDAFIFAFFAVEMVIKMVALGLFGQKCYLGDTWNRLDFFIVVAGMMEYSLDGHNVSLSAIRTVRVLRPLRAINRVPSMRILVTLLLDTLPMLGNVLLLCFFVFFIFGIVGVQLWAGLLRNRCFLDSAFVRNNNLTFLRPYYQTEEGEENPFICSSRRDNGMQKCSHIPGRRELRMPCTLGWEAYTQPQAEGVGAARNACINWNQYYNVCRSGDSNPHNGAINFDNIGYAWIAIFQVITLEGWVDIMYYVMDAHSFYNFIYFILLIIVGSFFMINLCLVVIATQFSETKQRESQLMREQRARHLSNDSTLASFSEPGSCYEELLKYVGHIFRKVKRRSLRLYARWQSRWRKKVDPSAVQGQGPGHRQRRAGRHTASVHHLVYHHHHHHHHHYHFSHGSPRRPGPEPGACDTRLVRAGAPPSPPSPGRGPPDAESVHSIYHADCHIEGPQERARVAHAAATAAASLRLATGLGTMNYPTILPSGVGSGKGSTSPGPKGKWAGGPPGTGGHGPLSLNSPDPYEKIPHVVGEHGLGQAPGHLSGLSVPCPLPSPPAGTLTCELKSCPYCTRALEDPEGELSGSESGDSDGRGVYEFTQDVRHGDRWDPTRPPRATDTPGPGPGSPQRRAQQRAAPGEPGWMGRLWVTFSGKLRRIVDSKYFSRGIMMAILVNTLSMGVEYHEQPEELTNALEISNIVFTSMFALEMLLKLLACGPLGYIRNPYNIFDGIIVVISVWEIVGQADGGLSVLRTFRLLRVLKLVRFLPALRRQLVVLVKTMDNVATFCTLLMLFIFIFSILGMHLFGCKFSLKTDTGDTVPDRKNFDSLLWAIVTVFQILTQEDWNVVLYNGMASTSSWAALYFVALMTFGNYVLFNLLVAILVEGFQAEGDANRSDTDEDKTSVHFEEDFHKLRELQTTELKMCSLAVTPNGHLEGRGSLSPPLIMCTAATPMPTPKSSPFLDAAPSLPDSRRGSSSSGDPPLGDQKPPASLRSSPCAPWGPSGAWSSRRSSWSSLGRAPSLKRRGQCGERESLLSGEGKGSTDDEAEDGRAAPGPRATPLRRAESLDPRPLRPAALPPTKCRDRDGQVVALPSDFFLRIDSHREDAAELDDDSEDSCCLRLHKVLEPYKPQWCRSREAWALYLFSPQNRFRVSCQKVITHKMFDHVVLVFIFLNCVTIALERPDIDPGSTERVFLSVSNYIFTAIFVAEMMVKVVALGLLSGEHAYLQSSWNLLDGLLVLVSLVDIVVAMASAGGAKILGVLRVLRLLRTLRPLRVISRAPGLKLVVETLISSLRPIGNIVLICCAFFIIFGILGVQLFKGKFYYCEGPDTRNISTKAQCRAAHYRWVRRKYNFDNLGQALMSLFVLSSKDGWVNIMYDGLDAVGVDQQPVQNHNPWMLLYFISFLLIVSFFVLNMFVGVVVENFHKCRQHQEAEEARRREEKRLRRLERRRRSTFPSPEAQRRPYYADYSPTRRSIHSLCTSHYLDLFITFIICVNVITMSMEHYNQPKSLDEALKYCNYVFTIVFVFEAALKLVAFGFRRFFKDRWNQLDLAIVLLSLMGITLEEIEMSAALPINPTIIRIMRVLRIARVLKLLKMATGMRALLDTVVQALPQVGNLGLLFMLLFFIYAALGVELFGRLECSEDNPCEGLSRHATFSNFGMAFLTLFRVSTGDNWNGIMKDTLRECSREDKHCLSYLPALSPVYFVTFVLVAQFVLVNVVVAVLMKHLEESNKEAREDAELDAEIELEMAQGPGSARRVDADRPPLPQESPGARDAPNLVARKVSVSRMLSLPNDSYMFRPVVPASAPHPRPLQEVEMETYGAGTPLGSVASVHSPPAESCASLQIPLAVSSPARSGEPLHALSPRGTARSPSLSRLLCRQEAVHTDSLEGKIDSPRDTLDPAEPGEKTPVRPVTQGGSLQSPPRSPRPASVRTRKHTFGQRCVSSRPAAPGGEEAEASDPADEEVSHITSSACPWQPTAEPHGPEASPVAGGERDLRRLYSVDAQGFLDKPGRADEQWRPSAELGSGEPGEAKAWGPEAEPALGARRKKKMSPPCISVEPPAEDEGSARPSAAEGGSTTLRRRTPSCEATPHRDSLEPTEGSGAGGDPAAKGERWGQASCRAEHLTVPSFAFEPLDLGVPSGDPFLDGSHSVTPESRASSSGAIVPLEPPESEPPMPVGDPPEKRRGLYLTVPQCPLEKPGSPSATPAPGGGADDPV

[4] = target: T2, Leucine aminopeptidase (Plasmodium falciparum 3D7, UniProt Q8IL11); experiment: P. falciparum M17LAP inhibitors, primary screen, biochemical, fluorogenic H-Leu-NHMec substrate, 1536-well (AID 1619); format: functional
T2 sequence (Q8IL11 whole entry): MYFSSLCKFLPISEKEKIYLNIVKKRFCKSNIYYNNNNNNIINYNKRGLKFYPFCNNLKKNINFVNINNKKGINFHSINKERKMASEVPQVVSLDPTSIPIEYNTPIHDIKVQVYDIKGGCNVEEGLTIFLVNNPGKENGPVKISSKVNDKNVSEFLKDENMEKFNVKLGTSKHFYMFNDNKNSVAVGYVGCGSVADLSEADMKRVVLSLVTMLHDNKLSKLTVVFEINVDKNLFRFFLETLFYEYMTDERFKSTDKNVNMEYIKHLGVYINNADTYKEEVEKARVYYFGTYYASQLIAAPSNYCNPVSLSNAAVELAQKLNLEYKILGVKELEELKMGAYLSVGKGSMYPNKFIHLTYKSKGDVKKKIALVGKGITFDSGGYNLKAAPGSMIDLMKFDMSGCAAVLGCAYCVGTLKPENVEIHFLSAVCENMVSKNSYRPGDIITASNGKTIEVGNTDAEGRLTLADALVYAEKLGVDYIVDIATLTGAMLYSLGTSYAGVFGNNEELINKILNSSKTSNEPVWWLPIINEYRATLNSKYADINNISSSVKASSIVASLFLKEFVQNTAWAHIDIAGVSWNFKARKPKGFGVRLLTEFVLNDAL

[5] = Luminescence Cell-Based Dose Retest to Confirm Inhibitors of Cancer Stem Cells. [Related pubchem assays (depositor defined):AID2717, AID2721]; format: functional; conditions: Homo sapiens
[6] = HPDE-C7 pancreatic duct cell viability loss – fluorescence, HTS (AID 430); format: functional, cell-based; conditions: Homo sapiens
[7] = viability loss of HPDE-C7K cells – cell-based, fluorescence, HTS, primary screen (AID 431); format: functional; conditions: Homo sapiens
[8] = viability of uninfected HEp-2 cells – cell-based, HTS, cytotoxicity control for RSV inhibitor project, dose response (AID 2410); format: functional; conditions: human respiratory syncytial virus
[9] = IC50 of Artemis nuclease activity blockers – biochemical, fluorescence intensity, dose response (AID 720701); format: functional;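 further: Artemis endonuclease enzyme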
[10] = target: Cytochrome P450 2D6 (Homo sapiens, UniProt P10635);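 further: CYP2D6 member of a cytochrome P450 panel assay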
Cytochrome P450 2D6, sequence (P10635 whole entry): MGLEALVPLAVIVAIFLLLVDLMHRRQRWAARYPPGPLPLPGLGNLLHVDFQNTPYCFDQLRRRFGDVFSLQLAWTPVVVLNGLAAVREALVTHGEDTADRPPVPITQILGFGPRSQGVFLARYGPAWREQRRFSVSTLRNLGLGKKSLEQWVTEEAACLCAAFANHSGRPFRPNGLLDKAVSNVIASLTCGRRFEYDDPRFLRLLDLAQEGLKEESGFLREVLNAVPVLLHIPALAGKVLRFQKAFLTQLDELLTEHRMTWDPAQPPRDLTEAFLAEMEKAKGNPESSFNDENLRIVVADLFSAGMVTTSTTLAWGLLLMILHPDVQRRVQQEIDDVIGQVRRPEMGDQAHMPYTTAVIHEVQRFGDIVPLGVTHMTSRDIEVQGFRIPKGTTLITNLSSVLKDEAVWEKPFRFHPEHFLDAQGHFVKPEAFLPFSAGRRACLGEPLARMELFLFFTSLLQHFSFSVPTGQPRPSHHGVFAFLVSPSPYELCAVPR

[11] = target: Cytochrome P450 2C9 (Homo sapiens, UniProt P11712)
Cytochrome P450 2C9, sequence (P11712 whole entry): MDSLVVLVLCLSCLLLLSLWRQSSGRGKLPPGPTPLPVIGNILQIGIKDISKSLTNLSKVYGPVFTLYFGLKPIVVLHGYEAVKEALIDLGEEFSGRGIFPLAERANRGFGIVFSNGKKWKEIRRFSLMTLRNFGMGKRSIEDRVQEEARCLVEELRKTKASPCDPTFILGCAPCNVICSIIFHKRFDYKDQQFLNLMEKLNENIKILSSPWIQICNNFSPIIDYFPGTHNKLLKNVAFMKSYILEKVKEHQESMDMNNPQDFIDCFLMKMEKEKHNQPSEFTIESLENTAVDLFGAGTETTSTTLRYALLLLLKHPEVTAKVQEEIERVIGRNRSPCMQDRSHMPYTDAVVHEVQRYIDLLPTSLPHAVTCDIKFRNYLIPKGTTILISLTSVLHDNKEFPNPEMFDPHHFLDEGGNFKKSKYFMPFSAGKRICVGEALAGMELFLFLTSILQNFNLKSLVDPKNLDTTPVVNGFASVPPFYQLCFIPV

[12] = target: T3, Protein RecA (Mycobacterium tuberculosis, UniProt P9WHJ3); experiment: Fluorescence Cell-Free Homogeneous Dose Retest to Identify Inhibitors of RecA-Intein Splicing Activity. [Related pubchem assays (depositor defined):AID2097, AID2223, AID489010, AID492950]; format: functional
T3 sequence (P9WHJ3 whole entry): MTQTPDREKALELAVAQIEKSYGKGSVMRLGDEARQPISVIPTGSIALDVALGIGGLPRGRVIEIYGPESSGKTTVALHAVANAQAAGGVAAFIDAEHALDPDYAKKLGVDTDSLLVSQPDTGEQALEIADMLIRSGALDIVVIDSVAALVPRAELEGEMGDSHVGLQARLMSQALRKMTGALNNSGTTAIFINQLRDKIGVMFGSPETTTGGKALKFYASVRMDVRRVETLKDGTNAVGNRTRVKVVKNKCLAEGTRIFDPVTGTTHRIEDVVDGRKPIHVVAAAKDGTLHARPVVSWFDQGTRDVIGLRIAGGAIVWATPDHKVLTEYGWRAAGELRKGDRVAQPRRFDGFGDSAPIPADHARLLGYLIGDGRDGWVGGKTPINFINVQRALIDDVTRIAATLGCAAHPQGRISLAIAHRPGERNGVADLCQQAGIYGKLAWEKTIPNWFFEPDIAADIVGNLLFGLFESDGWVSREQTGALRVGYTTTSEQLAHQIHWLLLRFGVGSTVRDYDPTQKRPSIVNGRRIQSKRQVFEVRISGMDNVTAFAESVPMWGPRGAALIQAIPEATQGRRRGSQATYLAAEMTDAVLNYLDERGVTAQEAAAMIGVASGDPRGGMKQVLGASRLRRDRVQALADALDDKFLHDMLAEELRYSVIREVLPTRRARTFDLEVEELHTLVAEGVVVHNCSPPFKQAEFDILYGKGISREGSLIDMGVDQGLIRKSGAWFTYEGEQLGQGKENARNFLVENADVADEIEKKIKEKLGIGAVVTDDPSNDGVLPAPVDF

[13] = target: T4, Replicative DNA helicase DnaB (Mycobacterium tuberculosis, UniProt P9WMR3); experiment: DnaB intein splicing inhibitors, dose response, biochemical, cell-free fluorescence (AID 449749); format: functional
T4 sequence (P9WMR3 whole entry): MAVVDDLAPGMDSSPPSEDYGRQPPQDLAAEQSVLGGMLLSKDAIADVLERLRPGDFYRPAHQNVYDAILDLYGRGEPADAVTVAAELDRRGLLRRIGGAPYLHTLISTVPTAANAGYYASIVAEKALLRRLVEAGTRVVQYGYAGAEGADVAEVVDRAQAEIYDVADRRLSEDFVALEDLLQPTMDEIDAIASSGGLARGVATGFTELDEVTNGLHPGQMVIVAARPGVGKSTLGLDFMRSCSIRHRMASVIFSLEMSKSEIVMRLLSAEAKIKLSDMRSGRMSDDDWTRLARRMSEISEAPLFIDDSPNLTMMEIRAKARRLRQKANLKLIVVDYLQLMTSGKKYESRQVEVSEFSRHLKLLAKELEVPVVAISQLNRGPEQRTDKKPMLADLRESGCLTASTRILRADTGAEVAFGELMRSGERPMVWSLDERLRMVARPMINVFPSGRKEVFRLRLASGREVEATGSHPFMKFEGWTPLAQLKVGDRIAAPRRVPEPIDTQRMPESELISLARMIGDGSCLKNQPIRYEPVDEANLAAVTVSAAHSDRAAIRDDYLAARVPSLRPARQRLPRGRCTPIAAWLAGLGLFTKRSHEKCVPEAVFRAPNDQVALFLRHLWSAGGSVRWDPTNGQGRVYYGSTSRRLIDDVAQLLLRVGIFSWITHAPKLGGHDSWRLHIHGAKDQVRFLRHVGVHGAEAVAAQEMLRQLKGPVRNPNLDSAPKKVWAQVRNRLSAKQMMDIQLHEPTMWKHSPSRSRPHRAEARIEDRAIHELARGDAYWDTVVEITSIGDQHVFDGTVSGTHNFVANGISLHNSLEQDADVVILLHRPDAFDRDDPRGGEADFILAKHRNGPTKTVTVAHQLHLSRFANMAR

[14] = target: T5, Estrogen receptor beta (Homo sapiens, UniProt Q92731); experiment: blockers of SRC-3 recruitment to ERβ – biochemical, ELISA, streptavidin-HRP readout, orthogonal assay, confirmation (AID 1060)
T5 sequence (Q92731 whole entry): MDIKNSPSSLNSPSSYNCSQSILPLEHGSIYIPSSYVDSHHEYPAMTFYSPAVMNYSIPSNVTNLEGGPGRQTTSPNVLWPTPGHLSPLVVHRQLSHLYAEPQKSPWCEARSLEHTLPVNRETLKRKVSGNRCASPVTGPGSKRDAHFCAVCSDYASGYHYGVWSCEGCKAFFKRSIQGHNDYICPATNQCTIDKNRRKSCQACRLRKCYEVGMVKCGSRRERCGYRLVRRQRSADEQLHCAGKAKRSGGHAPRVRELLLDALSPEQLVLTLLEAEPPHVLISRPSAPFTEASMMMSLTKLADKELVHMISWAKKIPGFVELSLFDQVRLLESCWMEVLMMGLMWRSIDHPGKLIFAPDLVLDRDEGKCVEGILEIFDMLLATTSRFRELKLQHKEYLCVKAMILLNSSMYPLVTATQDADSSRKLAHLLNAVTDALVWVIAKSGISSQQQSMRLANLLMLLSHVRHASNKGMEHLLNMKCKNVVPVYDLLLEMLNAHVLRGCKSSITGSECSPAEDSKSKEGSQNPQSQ

[15] = target: T5, Estrogen receptor beta
[16] = Luminescence Cell-Based Dose Response HTS to Identify Inhibitors of 5'UTR Stem-Loop Driven Prion Protein mRNA Translation in H4 Neuroglioblastoma Cells. [Related pubchem assays: 1827 (Project Summary), 1813 (Primary HTS)]; format: functional
[17] = alpha-synuclein stem-loop luciferase translation blockers – H4 neuroglioma cells, luminescence, confirmation (AID 1988); format: functional, cell-based
[18] = target: T6, Rac GTPase-activating protein 1 (Homo sapiens, UniProt Q9H0H5); experiment: blockers of MgcRacGAP-driven Rac1 GTP hydrolysis – biochemical, ADP Hunter fluorescence, primary and confirmatory, confirmation (AID 624330); format: functional
T6 sequence (Q9H0H5 whole entry): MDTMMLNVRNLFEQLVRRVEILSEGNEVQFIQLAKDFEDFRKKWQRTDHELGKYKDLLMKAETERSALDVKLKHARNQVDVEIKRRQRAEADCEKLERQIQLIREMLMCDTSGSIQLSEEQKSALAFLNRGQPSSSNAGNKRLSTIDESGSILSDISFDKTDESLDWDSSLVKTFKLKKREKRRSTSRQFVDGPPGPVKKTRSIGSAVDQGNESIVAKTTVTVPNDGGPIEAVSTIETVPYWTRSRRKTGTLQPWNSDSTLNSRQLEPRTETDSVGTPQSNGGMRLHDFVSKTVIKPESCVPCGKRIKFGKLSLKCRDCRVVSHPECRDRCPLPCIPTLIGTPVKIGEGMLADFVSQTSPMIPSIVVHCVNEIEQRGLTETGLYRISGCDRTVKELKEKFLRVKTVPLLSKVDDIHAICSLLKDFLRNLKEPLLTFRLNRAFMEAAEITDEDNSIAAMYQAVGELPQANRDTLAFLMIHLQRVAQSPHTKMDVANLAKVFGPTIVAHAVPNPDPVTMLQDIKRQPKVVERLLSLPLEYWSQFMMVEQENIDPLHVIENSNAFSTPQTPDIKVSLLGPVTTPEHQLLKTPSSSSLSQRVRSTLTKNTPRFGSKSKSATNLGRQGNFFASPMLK

[19] = target: FAD-linked sulfhydryl oxidase ALR (Homo sapiens, UniProt P55789); experiment: ALR-catalysed DTT oxidation blockers – biochemical, H2O2 detection, luminescence, cherry-pick, dose response (AID 493248)
FAD-linked sulfhydryl oxidase ALR, sequence (P55789 whole entry): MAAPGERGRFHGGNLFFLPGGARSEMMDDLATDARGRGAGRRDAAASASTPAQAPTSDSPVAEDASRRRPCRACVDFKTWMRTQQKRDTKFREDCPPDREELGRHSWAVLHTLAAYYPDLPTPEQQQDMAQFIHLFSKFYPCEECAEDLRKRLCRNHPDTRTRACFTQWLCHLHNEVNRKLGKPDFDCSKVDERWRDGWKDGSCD

Structure (SMILES): N#CC(C#N)=C(N)CSc1cccc[n+]1[O-]
- IC50 [1]: > 50 µM (not active)

Structure (SMILES): CCC1Oc2ccc(C)cc2N(CC(=O)NCC2COc3ccccc3O2)C1=O (stereo unspecified)
- EC50 [2]: > 50 µM (active)
- EC50 [3]: 5.63 µM (active)

Structure (SMILES): O=c1oc2ccccc2nc1/C=C(\O)c1ccccc1
- EC50 [2]: > 50 µM (active)

Structure (SMILES): CCOC(=O)c1c(NC(=O)C2C3C=CC(C3)C2C(=O)O)sc2c1CCC(C)C2 (stereo unspecified)
- IC50 [4]: 15.7 µM (active)

Structure (SMILES): CC(C)(C)OC(=O)NCCCC[C@H](NC(=O)c1[nH]cnc1C(=O)NCc1ccccc1)C(=O)OC(C)(C)C
- IC50 [1]: 10.5 µM (not active)

Structure (SMILES): CCCCN(C)c1nc(-c2ccco2)c2c(c1C#N)CC(C)(C)OC2
- AC50 [5]: 7.53 µM (active)
- EC50 [6]: 13.9 µM (active)
- EC50 [7]: 13.9 µM (active)

Structure (SMILES): Cc1ccc(Cn2c(C)nc3c(c2=O)c2nc4ccccc4nc2n3Cc2ccco2)cc1
- CC50 [8]: 29 µM (active)
- IC50 [9]: > 20 µM (inactive)

Structure (SMILES): Cc1ccccc1C(=O)Nc1nncs1
- IC50 [4]: 25.4 µM (active)

Structure (SMILES): O=C(CCC1CCCCC1)Nc1c2c(nn1-c1ccc(F)cc1)CS(=O)(=O)C2
- AC50 [10]: 11.2 µM (inconclusive)
- AC50 [11]: 12.6 µM (inconclusive)
- EC50 [6]: > 20 µM (not active)
- EC50 [7]: > 20 µM (not active)

Structure (SMILES): Cc1ccc(SCc2n[nH]c3c2C2(CCSCC2)C(C#N)=C(N)O3)cc1
- EC50 [12]: 2.42 µM (active)
- IC50 [4]: 91 µM (active)
- AC50 [13]: 2.94 µM (active)

Structure (SMILES): CCCN(CCC)CC(=O)Nc1cccc2c1OCO2
- EC50 [2]: > 50 µM (active)

Structure (SMILES): O=C(Cc1cccs1)Nc1ccc(-c2nnn(CC(=O)N3CCOCC3)n2)cc1
- IC50 [14]: > 50 µM (not active)
- IC50 [15]: 2.92 µM (active)

Structure (SMILES): O=[N+]([O-])c1cc(/C=N/n2cnnc2)ccc1N1CCCC1
- EC50 [16]: 16.9 µM (active)
- IC50 [1]: 36.6 µM (not active)
- EC50 [17]: 9.55 µM (active)

Structure (SMILES): CC(C)(C)c1nnc2sc(SC/C(O)=C(\C#N)c3nc4ccccc4[nH]3)nn2c1=O
- IC50 [14]: 40.6 µM (not active)
- IC50 [15]: 4 µM (active)

Structure (SMILES): O=C(N/N=C/c1ccc(O)c(O)c1)C1c2ccccc2Oc2ccccc21
- IC50 [9]: > 20 µM (inactive)
- IC50 [18]: 50.6 µM (active)
- AC50 [19]: 0.439 µM (active)

Structure (SMILES): O=C(CC1Sc2ccccc2NC1=O)Nc1cccc(C(=O)O)c1 (stereo unspecified)
- IC50 [4]: 2.94 µM (active)

Reference: ChEMBL document CHEMBL1201862, “PubChem BioAssay data set” (2004)
